Laboratory results published in paper PMC3914206.

Experiments:
[1] = biological target: T1, panel of 442 kinases (Homo sapiens, UniProt O75385); format: binding; settings: kinase ULK1; compound concentration 10 µM
T1 construct: purchased KINOMEscan
T1 sequence (O75385 1-1050): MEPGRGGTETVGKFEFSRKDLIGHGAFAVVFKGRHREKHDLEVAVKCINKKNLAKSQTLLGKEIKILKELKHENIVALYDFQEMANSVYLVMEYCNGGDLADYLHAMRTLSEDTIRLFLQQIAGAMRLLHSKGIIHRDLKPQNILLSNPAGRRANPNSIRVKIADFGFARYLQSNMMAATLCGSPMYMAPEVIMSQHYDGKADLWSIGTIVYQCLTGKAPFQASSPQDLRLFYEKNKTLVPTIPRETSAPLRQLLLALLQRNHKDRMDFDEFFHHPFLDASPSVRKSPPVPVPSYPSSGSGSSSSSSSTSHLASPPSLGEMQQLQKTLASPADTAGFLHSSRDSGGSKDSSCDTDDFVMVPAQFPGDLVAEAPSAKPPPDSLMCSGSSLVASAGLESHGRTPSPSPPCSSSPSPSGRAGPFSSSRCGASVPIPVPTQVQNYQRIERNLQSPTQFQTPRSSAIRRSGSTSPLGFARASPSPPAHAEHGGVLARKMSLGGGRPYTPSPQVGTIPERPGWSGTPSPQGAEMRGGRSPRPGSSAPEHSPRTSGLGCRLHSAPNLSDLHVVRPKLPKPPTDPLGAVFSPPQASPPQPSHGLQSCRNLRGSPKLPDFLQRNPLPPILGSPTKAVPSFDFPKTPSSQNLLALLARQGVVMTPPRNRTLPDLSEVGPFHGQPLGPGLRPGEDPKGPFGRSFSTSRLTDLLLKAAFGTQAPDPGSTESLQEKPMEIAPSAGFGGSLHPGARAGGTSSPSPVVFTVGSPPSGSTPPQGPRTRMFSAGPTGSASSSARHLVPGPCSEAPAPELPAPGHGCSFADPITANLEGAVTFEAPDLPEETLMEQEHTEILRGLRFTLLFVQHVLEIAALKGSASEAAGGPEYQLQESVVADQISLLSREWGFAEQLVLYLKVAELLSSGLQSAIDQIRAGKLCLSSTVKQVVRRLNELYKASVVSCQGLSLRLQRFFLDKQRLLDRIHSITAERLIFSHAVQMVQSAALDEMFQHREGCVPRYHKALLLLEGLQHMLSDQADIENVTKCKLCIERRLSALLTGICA
Text: (§1) We assessed the selectivity of members of this scaffold using the KINOMEscan methodology across a near comprehensive panel of 442 kinases [[18,27]].

[2] = biological target: T2, panel of 442 kinases (Homo sapiens, UniProt P21127); format: binding; settings: Compound Concentration 10 µM
T2 construct: purchased KINOMEscan
T2 sequence (P21127 whole entry): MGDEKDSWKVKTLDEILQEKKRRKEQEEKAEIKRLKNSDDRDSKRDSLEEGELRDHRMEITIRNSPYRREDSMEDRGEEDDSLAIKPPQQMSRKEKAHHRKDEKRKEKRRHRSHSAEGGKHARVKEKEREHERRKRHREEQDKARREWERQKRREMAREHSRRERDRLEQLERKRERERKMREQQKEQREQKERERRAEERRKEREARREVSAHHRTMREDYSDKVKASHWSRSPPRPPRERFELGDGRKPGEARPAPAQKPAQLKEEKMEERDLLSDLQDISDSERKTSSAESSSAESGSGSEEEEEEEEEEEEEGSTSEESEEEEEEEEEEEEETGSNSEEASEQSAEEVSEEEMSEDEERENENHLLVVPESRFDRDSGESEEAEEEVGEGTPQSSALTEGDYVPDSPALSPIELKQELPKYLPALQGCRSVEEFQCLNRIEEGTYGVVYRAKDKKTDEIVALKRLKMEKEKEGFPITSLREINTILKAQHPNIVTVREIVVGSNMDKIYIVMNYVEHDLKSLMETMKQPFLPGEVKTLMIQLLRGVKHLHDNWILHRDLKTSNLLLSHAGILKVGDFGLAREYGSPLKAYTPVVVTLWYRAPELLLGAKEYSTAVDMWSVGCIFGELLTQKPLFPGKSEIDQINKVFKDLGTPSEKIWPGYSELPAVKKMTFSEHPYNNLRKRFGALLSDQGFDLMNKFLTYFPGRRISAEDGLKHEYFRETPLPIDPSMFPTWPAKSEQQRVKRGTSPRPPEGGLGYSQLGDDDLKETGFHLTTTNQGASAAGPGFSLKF
Text: as §1

Structure (SMILES) | % Ctrl, ULK1 [1] [% Ctrl] | KINOMEscan: CDC2L1 [2]
CCOc1cc(C(=O)N2CCC(N3CCN(C)CC3)CC2)ccc1Nc1ncc2c(n1)N(C1CCCC1)c1ccccc1C(=O)N2C [Compound 26] | 100 | 100
COc1cc(C(=O)N2CCC(N3CCN(C)CC3)CC2)ccc1Nc1ncc2c(n1)N(C1CCCC1)c1ccccc1C(=O)N2C [Compound 25, 11-cyclopentyl-2-((2-methoxy-4-(4-(4-methylpiperazin-1-yl)piperidine-1-carbonyl)phenyl)amino)-5-methyl-5H-benzo[e]pyrimido[5,4-b][1,4]diazepin-6(11H)-one] | 100 | 81
COc1cc(C(=O)N2CCC(N3CCN(C)CC3)CC2)ccc1Nc1ncc2c(n1)N1CCc3cccc(c31)C(=O)N2C [Compound 24] | 100 | 
COc1cc(C(=O)N2CCC(N3CCN(C)CC3)CC2)ccc1Nc1ncc2c(n1)N(C)c1ccccc1C(=O)N2C [15 (LRRK2-IN-1)] | 80 | 84
